Test results from patent EP0248858B1, “NOVEL PHOSPHO-COMPOUNDS AND M[…]” (Max-Planck-Gesellschaft zur Förderung der Wissenschaften …, priority 1985, dated 1987).

System: chemisch induzierten Mamma-Karzinomen
Assay: chemically induced mammary carcinoma of the rat, oral administration as drinking solution
Assay type: in vivo
Settings: Ratten; for Remission von chemisch induzierten Mamma-Karzinomen: oral (Trinklösung), Tagesdosen von 20, 40 und 60 mg/kg Körpergewicht; for Verträglichkeit compared with 1-Octadecyl-2-methyl-rac-glycero-3-phospho-cholin / Wirksamkeit compared with 1-Octadecyl-2-methyl-rac-glycero-3-phospho-cholin: oral, comparison with 1-Octadecyl-2-methyl-rac-glycero-3-phospho-cholin
Excerpt: Die erfindungsgemäßen Arzneimittel, welche als Wirkstoffe eine Verbindung der allgemeinen Formel I enthalten, besitzen eine ausgeprägte cytotoxische Wirksamkeit, die sowohl in vivo am chemisch induzierten Mamma-Karzinom der Ratte, als auch in vitro an Leukämiezellen in der Zellkultur nachgewiesen wurde. Darüberhinaus wurden in einer klinischen Pilotstudie bei Patientinnen mit Mamma-Karzinom Hautmetastasen zur vollständigen Abheilung bei topischer Anwendung gebracht.
Für die orale Verabreichung werden die Verbindungen der allgemeinen Formel I zweckmäßig in Form einer Trinklösung angewendet. Als Träger eignen sich beispielsweise Milch, Kakao, Fruchtsaft oder Trinkwasser. […] Bei dem für diese Versuche verwendeten Tumormodell handelt es sich um ein sogenanntes hartes Modell. Dies bedeutet, daß die an diesem Modell erstellten Befunde in den meisten Fällen auch auf die humane Situation übertragbar sind.

For `CCCCCCCC/C=C\CCCCCCCCOP(=O)([O-])OCC[N+](C)(C)C` [Oleylphosphocholin], the “Remission von chemisch induzierten Mamma-Karzinomen” value was “vollständigen Remission”, the “Verträglichkeit compared with 1-Octadecyl-2-methyl-rac-glycero-3-phospho-cholin” value was “besser verträglich” and the “Wirksamkeit compared with 1-Octadecyl-2-methyl-rac-glycero-3-phospho-cholin” value was “besser wirksam”.

`CCCCCCCCCCCCCCCCOP(=O)([O-])OCC[N+](C)(C)C` [Hexadecylphosphocholin] was tested, and the “Remission von chemisch induzierten Mamma-Karzinomen” value was “vollständigen Remission”, the “Verträglichkeit compared with 1-Octadecyl-2-methyl-rac-glycero-3-phospho-cholin” value was “besser verträglich” and the “Wirksamkeit compared with 1-Octadecyl-2-methyl-rac-glycero-3-phospho-cholin” value was “besser wirksam”.
